# Measured values reported in ChEMBL document CHEMBL1201862, “PubChem BioAssay data set” (2004).
#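 Assay format: 96-well plates, 48-hour exposure. GI50 marks 50% less growth.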 Activity calls are given as the source filed them. Rule as the data show it: active = GI50 up to about 1.1 µM and inactive = higher.
# Assays:
# Assay in all cases: inhibition of tumour cell growth, NCI panel, 48 h
# [1] = tested on: COLO 205
# [2] = tested on: HOP-62
# [3] = tested on: IGROV-1
# [4] = tested on: MCF7
# [5] = tested on: NCI-H460
# [6] = tested on: OVCAR-4
# [7] = tested on: RXF 393
# [8] = tested on: SF-295
# [9] = tested on: SF-539
# [10] = tested on: SK-MEL-5
# [11] = tested on: SW-620
# [12] = tested on: U-251
# [13] = tested on: UACC-62
# [14] = tested on: UO-31
# [15] = tested on: CAKI-1
# [16] = tested on: CCRF-CEM
# [17] = tested on: NCI-H226
# [18] = tested on: OVCAR-8
# [19] = tested on: UACC-257
# [20] = tested on: PC-3
Compound,GI50 [1],GI50 [2],GI50 [3],GI50 [4],GI50 [5],GI50 [6],GI50 [7],GI50 [8],GI50 [9],GI50 [10],GI50 [11],GI50 [12],GI50 [13],GI50 [14],GI50 [15],GI50 [16],GI50 [17],GI50 [18],GI50 [19],GI50 [20]
Nc1ncnc2c(C3OC(CO)C(O)C3O)n[nH]c12 (configuration not stated),2.42 µM (inactive),0.0509 µM (active),0.445 µM (active),0.0698 µM (active),0.0826 µM (active),0.582 µM (active),0.201 µM (active),0.427 µM (active),0.46 µM (active),1.41 µM (inactive),0.106 µM (active),2.53 µM (inactive),1.4 µM (inactive),0.0551 µM (active),–,–,–,–,–,–
CCC1=CC2CN3CCc4c([nH]c5ccccc45)C(C(=O)OC)(C2)C13 (configuration not stated),39.4 µM (inactive),43.6 µM (inactive),47.3 µM (inactive),44.6 µM (inactive),52.6 µM (inactive),37.2 µM (inactive),35.7 µM (inactive),45.2 µM (inactive),50.9 µM (inactive),40.7 µM (inactive),41.9 µM (inactive),7.26 µM (inactive),37.8 µM (inactive),32.2 µM (inactive),20.8 µM (inactive),50.5 µM (inactive),11 µM (inactive),11 µM (inactive),54.8 µM (inactive),–
NC1=NC(c2ccccc2)CC(c2cc(Cl)cc(Br)c2O)=N1 (configuration not stated),13 µM (inactive),10.4 µM (inactive),14.5 µM (inactive),2.44 µM (inactive),12.4 µM (inactive),15.4 µM (inactive),4.36 µM (inactive),10.9 µM (inactive),12.2 µM (inactive),11.7 µM (inactive),8.2 µM (inactive),12.5 µM (inactive),10.1 µM (inactive),16.4 µM (inactive),13.3 µM (inactive),7.71 µM (inactive),18.9 µM (inactive),17.1 µM (inactive),14.7 µM (inactive),–
O=Cc1cc2c(cc1-c1cc3c(cc1C=O)OCO3)OCO2,39.5 µM (inactive),> 100 µM (inactive),> 100 µM (inactive),–,> 100 µM (inactive),> 100 µM (inactive),37.3 µM (inactive),> 100 µM (inactive),> 100 µM (inactive),> 100 µM (inactive),55.8 µM (inactive),> 100 µM (inactive),> 100 µM (inactive),71.6 µM (inactive),66.2 µM (inactive),23.4 µM (inactive),> 100 µM (inactive),> 100 µM (inactive),> 100 µM (inactive),–
Cc1cc(C#N)c(Nc2ccc(F)cc2[N+](=O)[O-])s1,> 100 µM (inactive),30.3 µM (inactive),–,–,> 100 µM (inactive),> 100 µM (inactive),20.2 µM (inactive),30.8 µM (inactive),80.7 µM (inactive),–,> 100 µM (inactive),26.8 µM (inactive),> 100 µM (inactive),> 100 µM (inactive),84.9 µM (inactive),> 100 µM (inactive),> 100 µM (inactive),> 100 µM (inactive),> 100 µM (inactive),> 100 µM (inactive)
COc1ccc(-c2cc(O)c3cccnc3n2)cc1,19.1 µM (inactive),44.3 µM (inactive),26.7 µM (inactive),19 µM (inactive),–,67.6 µM (inactive),44.5 µM (inactive),–,42.4 µM (inactive),–,32.2 µM (inactive),–,23.2 µM (inactive),54.6 µM (inactive),17.9 µM (inactive),28.1 µM (inactive),45.1 µM (inactive),57.1 µM (inactive),26.2 µM (inactive),–
Fc1cccc(Cl)c1C1SCc2nc3ccccc3n21 (configuration not stated),22.8 µM (inactive),33.2 µM (inactive),29.1 µM (inactive),–,33 µM (inactive),31.6 µM (inactive),31.6 µM (inactive),23.7 µM (inactive),22.8 µM (inactive),15.4 µM (inactive),37.2 µM (inactive),27.2 µM (inactive),15.7 µM (inactive),27.9 µM (inactive),27.1 µM (inactive),25.3 µM (inactive),36.6 µM (inactive),38.1 µM (inactive),21.9 µM (inactive),–
COc1ccc(/C=C\c2cc(OC)c(OC)c(OC)c2)c(O)c1O [COMBRETASTATIN A-1],6.65 µM (inactive),0.0893 µM (active),1.57 µM (inactive),< 0.01 µM (active),0.0463 µM (active),2.2 µM (inactive),–,0.05 µM (active),–,0.05 µM (active),0.0643 µM (active),0.0759 µM (active),0.0394 µM (active),0.91 µM (active),0.238 µM (active),0.0682 µM (active),–,0.0881 µM (active),0.0582 µM (active),< 0.0103 µM (active)
